Counter-ions that a name gives are not always drawn.
Test: Dynamic vapor sorption (DVS) analysis
Assay type: physicochemical

- maximum water adsorption (DVS) (at 82% RH): about 1.52%
- water retained at the end of the desorption branch (DVS) (end of desorption): 0.19%
- crystalline form of post-DVS sample (XRPD) versus pre-DVS sample (subsequent XRPD analysis after DVS): maintained the same crystalline form
Compound: CCCCCCCCC/C(=C\C1=C(C)C(=O)C(OC)=C(OC)C1=O)C(=O)O [Compound 1 calcium salt]

Source: US20260108483A1, “METHODS AND COMPOSITIONS FOR PREVENTING THE PROGRESSION OF DIABETIC RETINOPATHY AND RELATED CONDITIONS” (Opus Genetics, Inc., priority 2023, published 2026)
